# From patent US20210220370A1, “SELECTIVE HDAC8 INHIBITORS AND THEIR USES” (HOCHSCHULE DARMSTADT, priority 2015, published 2021)
# Molecular target: HDAC1 (Homo sapiens, UniProt Q13547)
# Assay: HDAC1 colorimetric assay, substrate Boc-Lys(Ac)-AMC
# Conditions: IC50 HDAC1, Table 1
# Experimental: 1 nM of HDAC1 was incubated with increasing concentrations of the respective compound for 30 minutes at 30° C. The reaction was initiated by addition of 50 μM of the substrate Boc-Lys(Ac)-AMC. After an incubation of 60 minutes the reaction was stopped by addition of 20 μM SAHA and the deacetylated substrate was converted into a fluorescent product by the addition of trypsin.
# HDAC1, sequence (Q13547 whole entry): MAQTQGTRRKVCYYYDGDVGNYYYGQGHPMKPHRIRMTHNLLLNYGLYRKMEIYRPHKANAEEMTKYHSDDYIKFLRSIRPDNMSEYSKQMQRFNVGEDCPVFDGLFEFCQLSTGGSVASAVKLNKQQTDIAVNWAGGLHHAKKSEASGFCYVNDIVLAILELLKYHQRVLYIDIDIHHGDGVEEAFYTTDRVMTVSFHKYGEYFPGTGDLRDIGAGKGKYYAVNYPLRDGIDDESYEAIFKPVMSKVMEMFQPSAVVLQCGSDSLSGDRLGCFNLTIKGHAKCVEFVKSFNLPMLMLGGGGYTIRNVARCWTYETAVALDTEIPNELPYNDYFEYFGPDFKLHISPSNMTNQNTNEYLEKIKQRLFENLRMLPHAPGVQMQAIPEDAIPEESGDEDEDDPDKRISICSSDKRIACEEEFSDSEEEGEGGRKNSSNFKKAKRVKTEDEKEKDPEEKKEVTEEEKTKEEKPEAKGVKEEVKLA
row,IC50,SMILES
1,2.1 ± 0.2 µM,"N=C1Sc2ccc(F)cc2C2=NCCCN12 [Compound 13l, 10-Fluoro-3,4-Dihydrobenzo[e]Pyrimido[1,2-c][1,3]Thiazin-6(2H)-Imine]"
2,> 50 µM,"N=C1Sc2c(F)cccc2C2=NCCN12 [Compound 13i, 7-Fluoro-2H-Benzo[e]Imidazo[1,2-c][1,3]Thiazin-5(3H)-Imine]"
3,3.7 ± 0.4 µM,"Cc1cccc2c1C1=NCCCN1C(=N)S2 [Compound 13m, 11-Methyl-3,4-Dihydrobenzo[e]Pyrimido[1,2-c][1,3]Thiazin-6(2H)-Imine]"

# Test system: uterine leiomyosarcoma cell line SKUT-1
# Assay: Growth inhibition of cancer cell line, resazurin assay
# Assay type: cell-based, Human
# Conditions: Homo sapiens, SK-UT-1; Table 2, resazurin assay
row,GI50,SMILES
1,24 ± 5 µM,"N=C1Sc2ccc(F)cc2C2=NCCCN12 [Compound 13l, 10-Fluoro-3,4-Dihydrobenzo[e]Pyrimido[1,2-c][1,3]Thiazin-6(2H)-Imine]"
2,109 ± 29 µM,"N=C1Sc2c(F)cccc2C2=NCCN12 [Compound 13i, 7-Fluoro-2H-Benzo[e]Imidazo[1,2-c][1,3]Thiazin-5(3H)-Imine]"
3,35 ± 2 µM,"Cc1cccc2c1C1=NCCCN1C(=N)S2 [Compound 13m, 11-Methyl-3,4-Dihydrobenzo[e]Pyrimido[1,2-c][1,3]Thiazin-6(2H)-Imine]"

# Molecular target: HDAC3 (Homo sapiens, UniProt O15379)
# Assay: HDAC3 colorimetric assay, substrate Boc-Lys(Ac)-AMC
# Assay type: biochemical
# Conditions: Table 1
# HDAC3, sequence (O15379 whole entry): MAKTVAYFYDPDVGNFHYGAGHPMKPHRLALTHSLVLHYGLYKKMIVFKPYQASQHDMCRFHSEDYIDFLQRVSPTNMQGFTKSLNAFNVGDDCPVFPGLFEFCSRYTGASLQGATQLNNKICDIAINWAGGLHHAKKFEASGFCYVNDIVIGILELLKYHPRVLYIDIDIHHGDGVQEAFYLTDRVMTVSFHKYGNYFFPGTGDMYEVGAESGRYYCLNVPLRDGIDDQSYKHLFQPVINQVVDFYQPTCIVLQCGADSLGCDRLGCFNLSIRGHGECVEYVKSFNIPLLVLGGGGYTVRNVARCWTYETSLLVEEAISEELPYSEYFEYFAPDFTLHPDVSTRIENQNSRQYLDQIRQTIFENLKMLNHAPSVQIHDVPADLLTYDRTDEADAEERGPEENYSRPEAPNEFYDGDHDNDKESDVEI
# HDAC3, sequence (Q9Y618 395-489 partner limits assumed): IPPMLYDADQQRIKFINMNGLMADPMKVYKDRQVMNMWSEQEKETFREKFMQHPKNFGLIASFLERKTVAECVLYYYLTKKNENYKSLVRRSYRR
row,IC50,SMILES
1,5.3 ± 0.4 µM,"N=C1Sc2ccc(F)cc2C2=NCCCN12 [Compound 13l, 10-Fluoro-3,4-Dihydrobenzo[e]Pyrimido[1,2-c][1,3]Thiazin-6(2H)-Imine]"
2,> 50 µM,"N=C1Sc2c(F)cccc2C2=NCCN12 [Compound 13i, 7-Fluoro-2H-Benzo[e]Imidazo[1,2-c][1,3]Thiazin-5(3H)-Imine]"
3,9.6 ± 0.7 µM,"Cc1cccc2c1C1=NCCCN1C(=N)S2 [Compound 13m, 11-Methyl-3,4-Dihydrobenzo[e]Pyrimido[1,2-c][1,3]Thiazin-6(2H)-Imine]"

# Molecular target: T1, HDAC6 (Homo sapiens, UniProt Q9UBN7)
# T1 sequence (Q9UBN7 1-1215): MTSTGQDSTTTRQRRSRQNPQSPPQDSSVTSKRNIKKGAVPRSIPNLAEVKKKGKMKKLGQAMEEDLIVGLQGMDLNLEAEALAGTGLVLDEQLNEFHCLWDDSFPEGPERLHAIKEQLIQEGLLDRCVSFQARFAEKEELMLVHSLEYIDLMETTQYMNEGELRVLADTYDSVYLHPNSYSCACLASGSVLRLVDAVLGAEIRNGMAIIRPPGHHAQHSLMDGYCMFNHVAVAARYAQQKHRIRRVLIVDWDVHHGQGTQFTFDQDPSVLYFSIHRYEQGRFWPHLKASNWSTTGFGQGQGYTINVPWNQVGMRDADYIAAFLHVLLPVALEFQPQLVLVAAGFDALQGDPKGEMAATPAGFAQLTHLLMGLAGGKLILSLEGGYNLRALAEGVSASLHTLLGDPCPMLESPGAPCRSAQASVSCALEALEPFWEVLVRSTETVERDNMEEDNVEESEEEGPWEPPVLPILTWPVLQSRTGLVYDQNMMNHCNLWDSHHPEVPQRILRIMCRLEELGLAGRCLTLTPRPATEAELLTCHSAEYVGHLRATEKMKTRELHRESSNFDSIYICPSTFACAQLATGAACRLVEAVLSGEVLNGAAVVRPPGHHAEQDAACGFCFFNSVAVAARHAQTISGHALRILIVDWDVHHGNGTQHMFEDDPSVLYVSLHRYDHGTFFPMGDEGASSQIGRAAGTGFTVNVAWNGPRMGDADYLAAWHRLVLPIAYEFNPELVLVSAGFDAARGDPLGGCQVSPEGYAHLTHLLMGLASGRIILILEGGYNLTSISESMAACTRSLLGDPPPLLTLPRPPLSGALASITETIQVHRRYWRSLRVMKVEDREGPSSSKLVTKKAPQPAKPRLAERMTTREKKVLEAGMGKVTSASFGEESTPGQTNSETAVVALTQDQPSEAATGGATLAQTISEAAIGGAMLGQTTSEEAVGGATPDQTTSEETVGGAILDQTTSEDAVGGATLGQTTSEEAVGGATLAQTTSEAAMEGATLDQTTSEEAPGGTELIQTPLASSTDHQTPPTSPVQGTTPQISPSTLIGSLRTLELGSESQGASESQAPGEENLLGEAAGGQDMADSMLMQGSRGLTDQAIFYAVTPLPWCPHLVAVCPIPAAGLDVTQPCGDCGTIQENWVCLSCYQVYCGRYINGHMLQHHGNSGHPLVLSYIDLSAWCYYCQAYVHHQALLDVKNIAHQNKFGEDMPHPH
# Assay: HDAC6 colorimetric assay, substrate Boc-Lys(Ac)-AMC
# Assay type: biochemical
# Conditions: Table 1; read-out: IC50 HDAC6
row,IC50,SMILES
1,0.65 ± 0.11 µM,"N=C1Sc2ccc(F)cc2C2=NCCCN12 [Compound 13l, 10-Fluoro-3,4-Dihydrobenzo[e]Pyrimido[1,2-c][1,3]Thiazin-6(2H)-Imine]"
2,> 50 µM,"N=C1Sc2c(F)cccc2C2=NCCN12 [Compound 13i, 7-Fluoro-2H-Benzo[e]Imidazo[1,2-c][1,3]Thiazin-5(3H)-Imine]"
3,1.3 ± 0.3 µM,"Cc1cccc2c1C1=NCCCN1C(=N)S2 [Compound 13m, 11-Methyl-3,4-Dihydrobenzo[e]Pyrimido[1,2-c][1,3]Thiazin-6(2H)-Imine]"

# Test system: T cell leukemia cell line JURKAT
# Assay: Growth inhibition of cancer cell line, resazurin assay
# Conditions: Homo sapiens, Jurkat, read-out: GI50 JURKAT
# Experimental: The following tumor cell lines were used: • Human uterine leiomyosarcoma cell line SKUT-1 (ATCC® HTB114™) • Human T cell leukemia cell line JURKAT (ATCC® TIB152™) • Human breast cancer cell line MCF-7 (ATCC® HTB22™)
# Cells were cultured in Dulbecco's modified Eagle's medium (DMEM) supplemented with 10% FCS.
row,GI50,SMILES
1,16 ± 2 µM,"N=C1Sc2ccc(F)cc2C2=NCCCN12 [Compound 13l, 10-Fluoro-3,4-Dihydrobenzo[e]Pyrimido[1,2-c][1,3]Thiazin-6(2H)-Imine]"
2,24 ± 3 µM,"N=C1Sc2c(F)cccc2C2=NCCN12 [Compound 13i, 7-Fluoro-2H-Benzo[e]Imidazo[1,2-c][1,3]Thiazin-5(3H)-Imine]"
3,23 ± 2 µM,"Cc1cccc2c1C1=NCCCN1C(=N)S2 [Compound 13m, 11-Methyl-3,4-Dihydrobenzo[e]Pyrimido[1,2-c][1,3]Thiazin-6(2H)-Imine]"

# Molecular target: HDAC4 (Homo sapiens, UniProt P56524)
# Assay: not given
# Assay type: biochemical
# Conditions: Table 1
# HDAC4, sequence (P56524 whole entry): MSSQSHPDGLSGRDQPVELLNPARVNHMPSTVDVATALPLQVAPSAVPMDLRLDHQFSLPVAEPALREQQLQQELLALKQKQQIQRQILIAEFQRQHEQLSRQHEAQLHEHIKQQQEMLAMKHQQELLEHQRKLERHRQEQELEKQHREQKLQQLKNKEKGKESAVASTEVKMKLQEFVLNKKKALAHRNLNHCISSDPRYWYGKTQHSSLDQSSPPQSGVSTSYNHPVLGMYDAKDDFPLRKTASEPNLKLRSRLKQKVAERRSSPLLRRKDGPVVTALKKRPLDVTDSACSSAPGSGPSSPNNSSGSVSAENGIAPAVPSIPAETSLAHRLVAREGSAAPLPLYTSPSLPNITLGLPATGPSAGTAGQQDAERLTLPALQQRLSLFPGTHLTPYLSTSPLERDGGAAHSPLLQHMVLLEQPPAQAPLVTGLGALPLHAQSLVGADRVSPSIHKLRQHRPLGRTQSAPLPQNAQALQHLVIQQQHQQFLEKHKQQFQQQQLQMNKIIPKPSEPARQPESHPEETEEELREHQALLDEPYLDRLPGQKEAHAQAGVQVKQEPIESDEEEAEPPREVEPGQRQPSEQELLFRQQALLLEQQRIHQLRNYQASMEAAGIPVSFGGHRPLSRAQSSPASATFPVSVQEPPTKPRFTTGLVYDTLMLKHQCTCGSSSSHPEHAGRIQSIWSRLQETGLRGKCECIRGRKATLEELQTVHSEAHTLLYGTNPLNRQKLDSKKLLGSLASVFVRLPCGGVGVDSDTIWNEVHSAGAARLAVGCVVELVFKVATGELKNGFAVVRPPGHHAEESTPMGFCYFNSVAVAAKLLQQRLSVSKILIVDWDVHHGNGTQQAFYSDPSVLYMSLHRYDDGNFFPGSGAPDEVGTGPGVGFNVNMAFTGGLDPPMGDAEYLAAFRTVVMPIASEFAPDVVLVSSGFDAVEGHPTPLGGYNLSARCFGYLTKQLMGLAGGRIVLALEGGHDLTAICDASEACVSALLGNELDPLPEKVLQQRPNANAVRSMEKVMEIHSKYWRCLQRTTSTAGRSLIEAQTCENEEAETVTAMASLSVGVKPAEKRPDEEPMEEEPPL
row,IC50,SMILES
1,2.2 ± 0.3 µM,"N=C1Sc2ccc(F)cc2C2=NCCCN12 [Compound 13l, 10-Fluoro-3,4-Dihydrobenzo[e]Pyrimido[1,2-c][1,3]Thiazin-6(2H)-Imine]"
2,> 50 µM,"N=C1Sc2c(F)cccc2C2=NCCN12 [Compound 13i, 7-Fluoro-2H-Benzo[e]Imidazo[1,2-c][1,3]Thiazin-5(3H)-Imine]"
3,3.2 ± 0.5 µM,"Cc1cccc2c1C1=NCCCN1C(=N)S2 [Compound 13m, 11-Methyl-3,4-Dihydrobenzo[e]Pyrimido[1,2-c][1,3]Thiazin-6(2H)-Imine]"

# Molecular target: T2, HDAC7 (Homo sapiens, UniProt Q8WUI4)
# T2 sequence (Q8WUI4 1-952): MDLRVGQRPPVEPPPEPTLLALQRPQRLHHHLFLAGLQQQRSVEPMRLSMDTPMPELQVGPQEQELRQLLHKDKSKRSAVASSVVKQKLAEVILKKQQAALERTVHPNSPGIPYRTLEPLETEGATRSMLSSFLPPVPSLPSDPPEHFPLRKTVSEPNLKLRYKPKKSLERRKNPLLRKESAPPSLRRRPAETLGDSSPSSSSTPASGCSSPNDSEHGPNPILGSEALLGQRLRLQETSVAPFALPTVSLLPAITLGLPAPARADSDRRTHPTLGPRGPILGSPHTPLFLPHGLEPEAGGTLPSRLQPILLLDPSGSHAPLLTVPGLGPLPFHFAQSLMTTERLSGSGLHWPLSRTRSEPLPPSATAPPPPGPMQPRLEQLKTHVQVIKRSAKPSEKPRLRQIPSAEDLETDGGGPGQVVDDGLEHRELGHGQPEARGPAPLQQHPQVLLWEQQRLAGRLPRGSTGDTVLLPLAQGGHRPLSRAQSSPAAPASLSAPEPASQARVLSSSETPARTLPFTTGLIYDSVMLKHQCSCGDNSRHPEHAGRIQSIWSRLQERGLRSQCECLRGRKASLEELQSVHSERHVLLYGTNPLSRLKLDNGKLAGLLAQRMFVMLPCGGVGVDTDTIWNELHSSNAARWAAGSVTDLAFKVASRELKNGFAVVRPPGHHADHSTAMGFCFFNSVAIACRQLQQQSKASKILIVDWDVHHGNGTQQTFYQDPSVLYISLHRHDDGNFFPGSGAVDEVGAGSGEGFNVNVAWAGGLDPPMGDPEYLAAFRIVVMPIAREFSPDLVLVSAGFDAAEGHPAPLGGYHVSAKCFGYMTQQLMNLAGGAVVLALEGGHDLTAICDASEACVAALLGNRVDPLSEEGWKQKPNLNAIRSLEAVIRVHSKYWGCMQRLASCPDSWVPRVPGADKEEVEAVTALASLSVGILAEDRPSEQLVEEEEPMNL
# Assay: HDAC7 colorimetric assay, substrate Boc-Lys(TFA)-AMC
# Conditions: IC50 HDAC7, Table 1
row,IC50,SMILES
1,1.5 ± 0.4 µM,"N=C1Sc2ccc(F)cc2C2=NCCCN12 [Compound 13l, 10-Fluoro-3,4-Dihydrobenzo[e]Pyrimido[1,2-c][1,3]Thiazin-6(2H)-Imine]"
2,> 50 µM,"N=C1Sc2c(F)cccc2C2=NCCN12 [Compound 13i, 7-Fluoro-2H-Benzo[e]Imidazo[1,2-c][1,3]Thiazin-5(3H)-Imine]"
3,1.3 ± 0.2 µM,"Cc1cccc2c1C1=NCCCN1C(=N)S2 [Compound 13m, 11-Methyl-3,4-Dihydrobenzo[e]Pyrimido[1,2-c][1,3]Thiazin-6(2H)-Imine]"

# Test system: breast cancer cell line MCF-7
# Assay: Growth inhibition of cancer cell line, resazurin assay
# Assay type: cell-based, Human
# Conditions: Homo sapiens, MCF7; Table 2, resazurin assay
row,GI50,SMILES
1,79 ± 11 µM,"N=C1Sc2ccc(F)cc2C2=NCCCN12 [Compound 13l, 10-Fluoro-3,4-Dihydrobenzo[e]Pyrimido[1,2-c][1,3]Thiazin-6(2H)-Imine]"
2,16 ± 3 µM,"N=C1Sc2c(F)cccc2C2=NCCN12 [Compound 13i, 7-Fluoro-2H-Benzo[e]Imidazo[1,2-c][1,3]Thiazin-5(3H)-Imine]"
3,179 ± 66 µM,"Cc1cccc2c1C1=NCCCN1C(=N)S2 [Compound 13m, 11-Methyl-3,4-Dihydrobenzo[e]Pyrimido[1,2-c][1,3]Thiazin-6(2H)-Imine]"

# Molecular target: HDAC2 (Homo sapiens, UniProt Q92769)
# Assay: HDAC2 colorimetric assay, substrate Boc-Lys(Ac)-AMC
# Assay type: biochemical
# Conditions: Table 1
# HDAC2, sequence (Q92769 whole entry): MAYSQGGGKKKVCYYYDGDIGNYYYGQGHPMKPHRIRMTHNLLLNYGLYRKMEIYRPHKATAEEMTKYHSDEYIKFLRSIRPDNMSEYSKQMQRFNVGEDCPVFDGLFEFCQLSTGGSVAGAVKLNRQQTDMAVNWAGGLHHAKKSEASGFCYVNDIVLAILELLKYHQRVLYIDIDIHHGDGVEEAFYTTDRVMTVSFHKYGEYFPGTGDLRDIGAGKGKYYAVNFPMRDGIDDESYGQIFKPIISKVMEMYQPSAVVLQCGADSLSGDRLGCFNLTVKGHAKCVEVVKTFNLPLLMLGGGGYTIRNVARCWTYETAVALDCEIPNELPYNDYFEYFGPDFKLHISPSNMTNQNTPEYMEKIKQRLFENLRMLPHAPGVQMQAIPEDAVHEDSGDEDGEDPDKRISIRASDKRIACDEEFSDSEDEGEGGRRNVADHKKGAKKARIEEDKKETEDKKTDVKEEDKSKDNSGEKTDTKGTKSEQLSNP
row,IC50,SMILES
1,30 ± 2 µM,"N=C1Sc2ccc(F)cc2C2=NCCCN12 [Compound 13l, 10-Fluoro-3,4-Dihydrobenzo[e]Pyrimido[1,2-c][1,3]Thiazin-6(2H)-Imine]"
2,> 50 µM,"N=C1Sc2c(F)cccc2C2=NCCN12 [Compound 13i, 7-Fluoro-2H-Benzo[e]Imidazo[1,2-c][1,3]Thiazin-5(3H)-Imine]"
3,> 50 µM,"Cc1cccc2c1C1=NCCCN1C(=N)S2 [Compound 13m, 11-Methyl-3,4-Dihydrobenzo[e]Pyrimido[1,2-c][1,3]Thiazin-6(2H)-Imine]"

# Molecular target: HDAC5 (Homo sapiens, UniProt Q9UQL6)
# Assay: HDAC5 colorimetric assay, substrate Boc-Lys(TFA)-AMC
# Conditions: not given
# HDAC5, sequence (Q9UQL6 whole entry): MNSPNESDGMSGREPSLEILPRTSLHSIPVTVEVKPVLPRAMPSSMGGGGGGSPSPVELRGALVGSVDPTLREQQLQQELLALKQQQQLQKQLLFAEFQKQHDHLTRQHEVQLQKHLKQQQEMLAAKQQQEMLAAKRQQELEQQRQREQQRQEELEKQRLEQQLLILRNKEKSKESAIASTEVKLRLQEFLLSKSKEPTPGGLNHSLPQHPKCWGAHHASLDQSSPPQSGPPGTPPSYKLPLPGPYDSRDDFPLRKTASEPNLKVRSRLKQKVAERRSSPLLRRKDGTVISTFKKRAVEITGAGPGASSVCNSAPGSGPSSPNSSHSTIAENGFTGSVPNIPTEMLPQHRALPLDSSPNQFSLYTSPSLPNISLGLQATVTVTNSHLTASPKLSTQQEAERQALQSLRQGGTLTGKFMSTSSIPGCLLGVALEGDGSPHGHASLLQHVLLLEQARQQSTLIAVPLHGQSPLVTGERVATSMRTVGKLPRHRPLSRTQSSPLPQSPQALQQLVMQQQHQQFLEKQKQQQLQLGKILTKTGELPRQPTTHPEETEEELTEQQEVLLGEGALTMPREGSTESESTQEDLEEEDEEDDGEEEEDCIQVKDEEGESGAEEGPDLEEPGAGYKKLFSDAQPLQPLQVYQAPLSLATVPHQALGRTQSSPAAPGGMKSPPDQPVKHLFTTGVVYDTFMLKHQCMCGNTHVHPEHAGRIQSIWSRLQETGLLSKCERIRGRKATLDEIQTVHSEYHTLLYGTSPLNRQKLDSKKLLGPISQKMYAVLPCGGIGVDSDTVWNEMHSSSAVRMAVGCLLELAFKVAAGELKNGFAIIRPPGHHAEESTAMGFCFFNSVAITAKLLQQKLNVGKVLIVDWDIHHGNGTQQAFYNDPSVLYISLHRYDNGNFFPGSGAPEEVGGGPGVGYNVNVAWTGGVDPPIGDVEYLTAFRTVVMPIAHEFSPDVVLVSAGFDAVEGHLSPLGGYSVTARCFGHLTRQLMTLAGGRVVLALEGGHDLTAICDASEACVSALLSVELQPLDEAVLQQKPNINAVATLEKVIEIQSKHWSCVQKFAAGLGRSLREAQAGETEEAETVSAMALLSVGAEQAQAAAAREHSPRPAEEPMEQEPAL
row,IC50,SMILES
1,0.046 ± 0.003 µM,"N=C1Sc2ccc(F)cc2C2=NCCCN12 [Compound 13l, 10-Fluoro-3,4-Dihydrobenzo[e]Pyrimido[1,2-c][1,3]Thiazin-6(2H)-Imine]"
2,> 50 µM,"N=C1Sc2c(F)cccc2C2=NCCN12 [Compound 13i, 7-Fluoro-2H-Benzo[e]Imidazo[1,2-c][1,3]Thiazin-5(3H)-Imine]"
3,0.038 ± 0.002 µM,"Cc1cccc2c1C1=NCCCN1C(=N)S2 [Compound 13m, 11-Methyl-3,4-Dihydrobenzo[e]Pyrimido[1,2-c][1,3]Thiazin-6(2H)-Imine]"

# Molecular target: T3, HDAC8 (Homo sapiens, UniProt Q9BY41)
# T3 sequence (Q9BY41 1-377): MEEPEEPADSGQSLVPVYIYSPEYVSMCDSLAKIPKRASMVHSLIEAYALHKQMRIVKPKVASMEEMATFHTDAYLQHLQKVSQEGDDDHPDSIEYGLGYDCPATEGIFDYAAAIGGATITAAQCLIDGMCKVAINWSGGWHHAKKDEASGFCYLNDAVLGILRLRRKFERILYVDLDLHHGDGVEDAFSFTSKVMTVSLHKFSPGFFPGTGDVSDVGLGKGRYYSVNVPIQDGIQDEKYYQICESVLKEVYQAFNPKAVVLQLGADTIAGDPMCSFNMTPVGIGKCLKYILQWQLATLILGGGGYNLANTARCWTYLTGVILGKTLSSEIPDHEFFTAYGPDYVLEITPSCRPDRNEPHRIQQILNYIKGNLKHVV
# Assay: HDAC8 colorimetric assay, substrate Boc-Lys(TFA)-AMC
# Conditions: IC50 HDAC8, Table 1
# Experimental: 1 nM of HDAC4 was incubated with increasing concentrations of the respective compound for 30 minutes at 30° C. The reaction was initiated by addition of 20 μM of the substrate Boc-Lys(trifluoracetyl)-AMC. After an incubation of 60 minutes the reaction was stopped by addition of 20 μM SAHA and the deacetylated substrate was converted into a fluorescent product by the addition of trypsin.
row,IC50,SMILES
1,0.006 ± 0.0006 µM,"N=C1Sc2ccc(F)cc2C2=NCCCN12 [Compound 13l, 10-Fluoro-3,4-Dihydrobenzo[e]Pyrimido[1,2-c][1,3]Thiazin-6(2H)-Imine]"
2,9.2 ± 0.3 µM,"N=C1Sc2c(F)cccc2C2=NCCN12 [Compound 13i, 7-Fluoro-2H-Benzo[e]Imidazo[1,2-c][1,3]Thiazin-5(3H)-Imine]"
3,0.0043 ± 0.0005 µM,"Cc1cccc2c1C1=NCCCN1C(=N)S2 [Compound 13m, 11-Methyl-3,4-Dihydrobenzo[e]Pyrimido[1,2-c][1,3]Thiazin-6(2H)-Imine]"
